The values that follow are results of earlier work, collected in patent US6355670B1, “Use of estrogen antagonists and estrogen agonists in inhibiting pathological conditions” (Pfizer, Inc., priority 1996, dated 2002).

Data set [1] concerns streptozotocin diabetic rats. As to conditions: implanted.
For data set [2], the system named is intact or ovariectomized female rats.
The next data set concerns the target T1, estrogen receptor (Homo sapiens, UniProt P03372).
T1 sequence (P03372 1-595): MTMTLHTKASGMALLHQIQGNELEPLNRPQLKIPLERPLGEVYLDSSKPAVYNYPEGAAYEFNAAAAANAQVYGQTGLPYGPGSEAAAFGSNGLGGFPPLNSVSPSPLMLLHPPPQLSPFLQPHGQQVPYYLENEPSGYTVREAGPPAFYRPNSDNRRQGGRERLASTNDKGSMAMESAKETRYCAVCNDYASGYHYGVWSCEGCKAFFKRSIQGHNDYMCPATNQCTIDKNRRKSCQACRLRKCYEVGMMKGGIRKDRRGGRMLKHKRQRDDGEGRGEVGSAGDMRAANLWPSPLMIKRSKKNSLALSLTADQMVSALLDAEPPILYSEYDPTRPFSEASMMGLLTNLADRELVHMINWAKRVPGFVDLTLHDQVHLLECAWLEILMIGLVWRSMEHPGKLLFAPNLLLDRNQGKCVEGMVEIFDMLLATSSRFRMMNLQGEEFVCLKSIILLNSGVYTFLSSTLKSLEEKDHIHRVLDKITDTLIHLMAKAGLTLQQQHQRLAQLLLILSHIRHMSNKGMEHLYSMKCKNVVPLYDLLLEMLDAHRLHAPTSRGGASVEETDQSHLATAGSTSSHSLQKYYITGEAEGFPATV
The note with it: higher, relative to tamoxifen.

The conditions of data set [3]: in vivo or in vitro.

Turning to `C[C@]12CC[C@H]3[C@@H](CCC4=CC(=O)CC[C@@]43C)[C@@H]1CC[C@@H]2O` [testosterone], in data set [1], the “ability of residual insulin to maintain glycemic control” value is “antagonized the ability of residual insulin to maintain glycemic control”. In addition, the insulin resistance result in data set [2] is reported as “marked insulin resistance”. Regarding `CC/C(=C(\c1ccccc1)c1ccc(OCCN(C)C)cc1)c1ccccc1` [tamoxifen], the liver tumors result in the data set on rats was “causes liver tumors in rats”.

For the compound `CC/C(=C(/c1ccc(OCCN(C)C)cc1)c1cccc(O)c1)c1ccccc1` [droloxifene, 3-hydroxytamoxifen], the “binding affinity to the estrogen receptor compared to tamoxifen” value at estrogen receptor was 10-60 fold. Also, the “carcinogenic or mutagenic effects” value in data set [3] is “devoid of in vivo or in vitro carcinogenic or nutagenic effects”.
